Legend:
[1] = biological target: T1, Avi-KRAS G12D (1-169) GppNHp/RAF1 RBD-3xFLAG (52-151) (Homo sapiens, UniProt P01116, G12D); experiment: Raf1-KRAS G12D-GppNHP disruption HTRF assay (Biological Example 1); format: binding; conditions: KRAS G12D, GppNHp-loaded; Table 11
T1 construct: Avi-KRAS G12D (1-169)
Description: (§1) A protein:protein interaction (PPI) Homogeneous Time Resolved Fluorescence (HTRF) assay was used to determine the effectiveness of compounds of the present disclosure in disrupting KRAS protein and effector RAF1 binding.
(§2) The assay buffer included: 50 mM Tris pH 7.5, 100 mM NaCl, 5 mM MgCl2, 0.1% BSA, 0.01% Tween, and 10% DMSO. The bead buffer included: 50 mM Tris pH 7.5, and 0.01% Tween 20. Assay volume of 20 μL was used in a 384 well plate-low volume format.
(§3) The HTRF assay employed the following protocol:
(§4) Protein mix was prepared in assay buffer, and dispensed on plates, 10 μL per well, then incubated for 1 h at room temperature, with 700 rpm shaking, Reagents mix was prepared and dispensed on plates, 10 μL per well, then incubated for 1 h at room temperature, with 700 rpm shaking.
(§5) Data was reported as percentage of activity, with DMSO as 100%. Data was plotted and analyzed using Prism 8.

[2] = biological target: T2, Avi-KRAS G12R (1-169) GppNHp/RAF1 RBD-3xFLAG (52-151) (Homo sapiens, UniProt P01116, G12R); experiment: Raf1-KRAS G12R-GppNHP disruption HTRF assay (Biological Example 1); format: binding; conditions: KRAS G12R, GppNHp-loaded; Table 11
T2 construct: Avi-KRAS G12R (1-169)
T2 sequence (P01116 1-169 isoform P01116-2 G12R): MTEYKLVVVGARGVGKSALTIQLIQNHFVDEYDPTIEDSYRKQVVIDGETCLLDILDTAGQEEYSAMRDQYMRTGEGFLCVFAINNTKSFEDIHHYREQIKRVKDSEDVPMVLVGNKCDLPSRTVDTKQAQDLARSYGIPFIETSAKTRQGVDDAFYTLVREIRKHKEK
Description: as §1, §2, §3, §4, §5

[3] = biological target: T3, Avi-KRAS G12V (1-169) GppNHp/RAF1 RBD-3xFLAG (52-151) (Homo sapiens, UniProt P01116, G12V); experiment: Raf1-KRAS G12V-GppNHP disruption HTRF assay (Biological Example 1); format: binding; conditions: KRAS G12V, GppNHp-loaded; Table 11
T3 construct: Avi-KRAS G12V (1-169)
T3 sequence (P01116 1-169 isoform P01116-2 G12V): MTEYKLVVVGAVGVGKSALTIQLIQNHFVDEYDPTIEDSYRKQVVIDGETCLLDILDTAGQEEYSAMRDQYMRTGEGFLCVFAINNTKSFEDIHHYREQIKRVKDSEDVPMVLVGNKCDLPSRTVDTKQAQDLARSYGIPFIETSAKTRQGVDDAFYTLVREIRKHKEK
Description: as §1, §2, §3, §4, §5

[4] = biological target: T4, Avi-KRAS WT (1-169) GppNHp/RAF1 RBD-3xFLAG (52-151) (Homo sapiens, UniProt P01116); experiment: Raf1-KRAS WT-GppNHP disruption HTRF assay (Biological Example 1); format: binding; conditions: KRAS WT, GppNHp-loaded; Table 11
T4 construct: Avi-KRAS WT (1-169)
T4 sequence (P01116 1-169 isoform P01116-2): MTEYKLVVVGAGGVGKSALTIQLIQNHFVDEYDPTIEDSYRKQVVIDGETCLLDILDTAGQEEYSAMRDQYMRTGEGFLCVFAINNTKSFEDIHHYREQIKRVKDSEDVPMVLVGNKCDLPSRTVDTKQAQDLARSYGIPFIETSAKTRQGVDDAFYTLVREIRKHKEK
Description: as §1, §2, §3, §4, §5

[5] = system: GP2d cells (KRAS G12D); experiment: Cell-based pERK HTRF assay in GP2d cell (Biological Example 2); conditions: GP2d (KRAS G12D) cells, pERK HTRF
Description: A pERK assay (Perkin Elmer) was used to determine the effectiveness of compounds in disrupting KRAS G12D protein/effector signaling in cells.
On Day 1, cells (GP2d) were seeded into 96-well plates at 3×10^4 cells/well in 80 μL complete growth media (DMEM, 10% FBS).
On Day 2, cells were treated with compounds at 0.25% DMSO. The source plate was created with compounds diluted in media at 5-fold the final assay concentration. The compounds were run in a 9-point concentration curve starting at 1 μM or in a 9-point concentration curve starting at 100 nM, with a half-log dilution between concentrations. Twenty μL was transferred onto the cell plates (final volume in wells was 100 μL). Plates were harvested after 60 min incubation by aspirating media and adding kit-supplied 1x supplemented lysis buffer to all wells (50 μL per well). Plates were then placed on a plate shaker and incubated at 850 rpm for an additional 30 min.
Antibody mixture solution was prepared by diluting aliquoted d2 and Eu Cryptate antibodies 1:20 in kit supplied detection buffer, and mixing the diluted antibodies solutions (1:1 v:v).
Samples were homogenized by pipetting up and down and then transferred (16 μL of cell lysates) from the 96-well cell culture plate to two wells of the HTRF 384-well detection plate containing the antibody solution. Plates were centrifuged (524 g for 1 min) and allowed to incubate between 4 and 24 h at room temperature. Maximum signal is reached after 4 h incubation time and remains stable over a period of 24 hours. Therefore, readings can be made between 4 and 24 h of incubation. Plates were centrifuged again (524 g for Imin), then analyzed on the EnVision plate reader using the following settings: Excitation 320 nm, Bandwidth 75 nm; Emission 615 nm, Bandwidth 85 nm; Gain 100%; Flashes 100; Lag 60 μs.

T1 sequence (P01116 1-169 isoform P01116-2 G12D): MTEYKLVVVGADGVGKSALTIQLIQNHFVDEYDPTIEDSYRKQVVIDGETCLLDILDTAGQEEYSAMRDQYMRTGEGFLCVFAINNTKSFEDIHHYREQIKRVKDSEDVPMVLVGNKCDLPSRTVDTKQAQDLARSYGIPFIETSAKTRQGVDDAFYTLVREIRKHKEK

Structure (SMILES)	IC50 [1]	IC50 [2]	IC50 [3]	IC50 [4]	IC50 ([5]; GP2d)	IC50 [5]
CCC(=O)N1C[C@H](C)N(c2nc(OC[C@@]34CCCN3C[C@H](F)C4)nc3c(F)c(-c4ccc(F)c5sc(N)c(C#N)c45)c(C(F)(F)F)cc23)C[C@H]1C (atropisomer, axis not shown) [Compound 99]	1000 to 10000 nM	1000 to 10000 nM	> 10000 nM	1000 to 10000 nM	< 100 nM	
CN(c1nc(OC[C@@]23CCCN2C[C@H](F)C3)nc2c(F)c(-c3ccc(F)c4sc(N)c(C#N)c34)c(C(F)(F)F)cc12)[C@@H]1CCN(C(=O)CC#N)C1 (atropisomer, axis not shown) [Compound 103]	100 to 1000 nM	100 to 1000 nM	100 to 1000 nM	100 to 1000 nM	< 100 nM	
CN(c1nc(OCC23CCCN2CCC3)nc2c(F)c(-c3ccc(F)c4sc(N)nc34)c(C(F)(F)F)cc12)C1CC(O)C12CCCC2 (single isomer, unassigned) [Compound 10]	> 10000 nM	> 10000 nM	> 10000 nM	> 10000 nM		
CN(c1nc(OC[C@@]23CCCN2C[C@H](F)C3)nc2c(F)c(-c3ccc(F)c4sc(N)c(C#N)c34)c(C(F)(F)F)cc12)[C@H]1C[C@@H](O)C1 (single isomer, unassigned) [Compound 20]	1000 to 10000 nM	1000 to 10000 nM	1000 to 10000 nM	1000 to 10000 nM	100 to 1000 nM	
CCN(C)c1nc(OC[C@@]23CCCN2C[C@H](F)C3)nc2c(F)c(-c3ccc(F)c4sc(N)c(C#N)c34)c(C(F)(F)F)cc12 (single isomer, unassigned) [Compound 197]	> 10000 nM	> 10000 nM	> 10000 nM	> 10000 nM		> 1000 nM
CN(c1nc(OCC23CCCN2CCC3)nc2c(F)c(-c3ccc(F)c4sc(N)nc34)c(C(F)(F)F)cc12)C1CC(CO)C1 (centres unmarked) [Compound 4]	1000 to 10000 nM	> 10000 nM	> 10000 nM	1000 to 10000 nM		
CN(c1nc(OC[C@@]23CCCN2C[C@H](F)C3)nc2c(F)c(-c3ccc(F)c4sc(N)c(C#N)c34)c(C(F)(F)F)cc12)[C@H]1C[C@@H](O)C1 [Compound 18, 2-amino-7-fluoro-4-(8-fluoro-2-(((2R,7aS)-2-fluorotetrahydro-1H-pyrrolizin-7a(5H)-yl)methoxy)-4-(((1s,3R)-3-hydroxycyclobutyl)(methyl)amino)-6-(trifluoromethyl)quinazolin-7-yl)benzo[b]thiophene-3-carbonitrile]	< 100 nM	100 to 1000 nM	100 to 1000 nM	< 100 nM	< 100 nM	
CN(c1nc(OC[C@@]23CCCN2C[C@H](F)C3)nc2c(F)c(-c3ccc(F)c4sc(N)c(C#N)c34)c(C(F)(F)F)cc12)C1CCC1 [Compound 22]	100 to 1000 nM	100 to 1000 nM	100 to 1000 nM	100 to 1000 nM	< 100 nM	
CN(c1nc(OC[C@@]23CCCN2C[C@H](F)C3)nc2c(F)c(-c3ccc(F)c4sc(N)c(C#N)c34)c(C(F)(F)F)cc12)[C@H]1C[C@H](O)C1 [Compound 23]	100 to 1000 nM	100 to 1000 nM	100 to 1000 nM	100 to 1000 nM	< 100 nM	
CN(c1nc(OC[C@@]23CCCN2C[C@H](F)C3)nc2c(F)c(-c3ccc(F)c4sc(N)c(C#N)c34)c(Cl)cc12)[C@H]1C[C@@H](O)C1 [Compound 24]	100 to 1000 nM	100 to 1000 nM	100 to 1000 nM	100 to 1000 nM	< 100 nM	
CN(c1nc(OCC23CCCN2CCC3)nc2c(F)c(-c3ccc(F)c4sc(N)c(C#N)c34)c(C(F)(F)F)cc12)[C@H]1C[C@@H](O)C1 [Compound 25]	< 100 nM	< 100 nM	< 100 nM	< 100 nM	< 100 nM	
